Read-outs that look alike come from different tables or passages of the source.
What was measured:
Botrytis cinerea [1] = test: Use Example M2: activity against the gray mold pathogen Botrytis cinerea in the microtiter test (Botrci); assay type: cell-based
Septoria glycines = test: Use Example M8: activity against Septoria glycines in the microtiter test (Septgl); assay type: cell-based
Phytophthora infestans = test: microbe, parasite or virus in culture; assay type: cell-based; conditions: for inhibition of growth at 1 ppm: read-out: Observed effect, 1 ppm; for inhibition of growth at 0.016 ppm: read-out: Observed effect, 0.016 ppm
Septoria tritici = test: Use Example G5: greenhouse, protective activity against Septoria leaf blotch of wheat caused by Septoria tritici (Septtr P1); assay type: in vivo, Septoria tritici on wheat seedlings
Experimental: (§1) The active compounds were prepared separately or jointly as a stock solution with 25 mg of active compound which was made up to 10 ml using a mixture of acetone and/or DMSO and the emulsifier Wettol EM 31 (wetting agent having emulsifying and dispersing action based on ethoxylated alkylphenols) in a volume ratio of solvent:emulsifier of 99:1. The mixture was then made up with water to 100 ml. This stock solution was diluted with the solvents/emulsifier/water mixture described to give the active compound concentrations stated below. Alternatively, the active compounds were used as commercial finished formulation and diluted with water to the stated active compound concentration. The active compound orysastrobin was used as a commercially available formulation, and diluted with water with reference to the active compound.
(§2) The visually determined values for the percentage of infected leaf area were initially converted into a mean value and then converted into efficacies in % of the untreated control. An efficacy of 0 means the same degree of infection as in the untreated control, an efficacy of 100 means 0% infection. The expected efficacies for the active compound combinations were determined using Colby's formula (Colby, S. R. “Calculating synergistic and antagonistic responses of herbicide combinations”, Weeds, 15, pp. 20-22, 1967) and compared to the observed efficacies.
Leaves of potted wheat seedlings were sprayed to run off point with an aqueous suspension having the active compound concentration stated below. 24 hours after the spray coating had dried on, they were inoculated with an aqueous spore suspension of Septoria tritici. The test plants were then placed in a greenhouse at temperatures between 18 and 22° C. and a relative atmospheric humidity close to 100% for four days and then at temperatures between 18 and 22° C. and an atmospheric humidity of about 70%. After 21 days, the extent of the development of the disease was determined visually in % infection of the total leaf area.

Colleotrichum truncatum = test: Use Example M9: activity against Colleotrichum truncatum in the microtiter test (Colltr); assay type: cell-based
Botrytis cinerea [2] = test: Use Example G2: greenhouse, activity against grey mold on bell pepper leaves caused by Botrytis cinerea, 1 day protective application (Botrci P1); assay type: in vivo, Botrytis cinerea on bell pepper seedlings
Experimental: as §1, §2
Bell pepper seedlings were, after 2-3 leaves were well developed, sprayed to run off point with an aqueous suspension having the active compound concentrations stated below. The next day, the treated plants were inoculated with a spore suspension of Botrytis cinerea in a 2% biomalt solution. The test plants were then placed in a dark climatized chamber at 22 to 24° C. and high atmospheric humidity. After 5 days, the extent of the fungal infection on the leaves could be determined visually in %.

Puccinia recondita = test: Use Example G3: greenhouse, protective activity against Puccinia recondita on wheat (brown rust of wheat) (Puccrt P1); assay type: in vivo, Puccinia recondita on wheat seedlings
Experimental: as §1, with “The active compound orysastrobin was used as a commercially available formulation, and diluted with water with reference to the active compound.” left out
The visually determined values for the percentage of infected leaf area were initially converted into a mean value and then converted into efficacies in % of the untreated control. […] The expected efficacies for the active compound combinations were determined using Colby's formula (Colby, S. R. “Calculating synergistic and antagonistic responses of herbicide combinations”, Weeds, 15, pp. 20-22, 1967) and compared to the observed efficacies.
Leaves of potted wheat seedlings were sprayed to run off point with an aqueous suspension having the active compound concentration stated below. […] The extent of rust fungus development on the leaves was then determined visually.

Alternaria solani = assay type: in vivo, Alternaria solani on tomato plants; conditions: 16 ppm
Phakopsora pachyrhizi = test: Use Example G4: greenhouse, curative activity against soybean rust caused by Phakopsora pachyrhizi (Phakpa K4); assay type: in vivo, Phakopsora pachyrhizi on soybean seedlings
Experimental: as §1, §2
Leaves of potted soybean seedlings were inoculated with a spore suspension of soybean rust (Phakpsora pachyrhizi). The pots were then placed in a chamber of high atmospheric humidity (90 to 95%) and 20 to 24° C. for 24 hours. During this time, the spores germinated and the germ tubes penetrated into the leaf tissue. The infected plants were then cultivated further in a greenhouse at temperatures between 23 and 27° C. and 60 to 80% relative atmospheric humidity. After three days, the plants were sprayed to run off point with the active compound solution described above at the active compound concentration stated below. After the spray coating had dried on, the test plants were cultivated in a greenhouse at temperatures between 23 and 27° C. and 60 to 80% relative atmospheric humidity for a further 10 days. The extent of the rust fungus development on the leaves was then determined visually in %.

[3] = Septoria glycines, 0.25 ppm, read-out: Observed effect
[4] = Septoria glycines, read-out: Observed effect
[5] = Septoria glycines, 0.016 ppm, read-out: Observed effect
[6] = Septoria glycines, 0.063 ppm, read-out: Observed effect
[7] = Septoria glycines, 1 ppm, read-out: Observed effect

CSc1ncnn1C[C@]1(c2ccc(F)c(F)c2)O[C@H]1c1ccccc1Cl (relative stereo) [Example I-5, 1-[trans-3-(2-chlorophenyl)-2-(3,4-difluorophenyl)oxiranylmethyl]-5-methylsulfanyl-1H-[1,2,4]triazole] was tested, and the Observed effect (Botrytis cinerea [1]; 16 ppm) was 9%.
With CSc1ncnn1C[C@]1(c2ccc(F)cc2F)O[C@H]1c1ccccc1Cl (relative stereo) [Example I-7, 1-[trans-3-(2-chlorophenyl)-2-(2,4-difluorophenyl)oxiranylmethyl]-5-methylsulfanyl-1H-[1,2,4]triazole] the Observed effect (Botrytis cinerea [1]; 16 ppm) was 25%.
CC1(C)CCC(Cc2ccc(Cl)cc2)C1(O)Cn1cncn1 (stereo not drawn) [II-2, metconazole] was tested, and the inhibition of growth at […] (Septoria glycines; [3]) was 19%.
CC(Cc1ccc(C(C)(C)C)cc1)CN1C[C@@H](C)O[C@@H](C)C1 (stereo partly drawn) [II-15, fenpropimorph] showed an inhibition of growth at 1 ppm (Phytophthora infestans; Phytophthora infestans) of 26%, an inhibition of growth at 0.004 ppm (Septoria glycines; [4]) of 1% and an inhibition of growth at […] (Septoria glycines; [3]) of 71%.
In the case of Cc1cc(C2CC2)nc(Nc2ccccc2)n1 [II-36, cyprodinil], the Observed effect (Septoria tritici; 4 ppm) is reported as 0%.
“2-[trans-3-(2-chlorophenyl)-2-(3,4-difluorophenyl)oxiranylmethyl]-2H-[1,2,4]triazole-3-thiol [Example I-3]” showed an Observed effect (Phytophthora infestans; 63 ppm) of 31%, an Observed effect (Botrytis cinerea [1]; 4 ppm) of 8% and an Observed effect (Botrytis cinerea [1]; 63 ppm) of 25%.
Molecule N#Cc1sc2c(=O)c3ccccc3c(=O)c=2sc1C#N [II-47, dithianon] has an inhibition of growth at 0.004 ppm (Septoria glycines; [4]) of 3%, an inhibition of growth at 0.016 ppm (Septoria glycines; [5]) of 37% and an Observed effect (Colleotrichum truncatum; 0.016 ppm) of 3%.
Work on CO/C=C(/C(=O)OC)c1ccccc1Oc1cc(Oc2ccccc2C#N)ncn1 [II-49, azoxystrobin] yielded an Observed effect (Septoria glycines; 0.016 ppm) of 20%.
CC(C)(C)C(O)(CCc1ccc(Cl)cc1)Cn1cncn1 (stereo not drawn) [II-3, tebuconazole] gave an Observed effect (Botrytis cinerea [2]; 1 ppm) of 0%.
With Fc1ccc([C@]2(Cn3cncn3)O[C@H]2c2ccccc2Cl)cc1 (racemic) [II-1, epoxiconazole] the inhibition of growth at […] (Septoria glycines; [6]) was 2%.
With O=C(Nc1ccccc1-c1ccc(Cl)cc1)c1cccnc1Cl [II-24, boscalid] the inhibition of growth at 16 ppm (Phytophthora infestans; Phytophthora infestans, read-out: Observed effect, 16 ppm) was 20%, the inhibition of growth at 0.016 ppm (Septoria glycines; [5]) was 10% and the inhibition of growth at 0.04 ppm (Septoria glycines; Septoria glycines, 0.04 ppm, read-out: Observed effect) was 9%. The Observed effect (Puccinia recondita; 1 ppm) was 13%.
O=[N+]([O-])c1cc(C(F)(F)F)c(Cl)c([N+](=O)[O-])c1Nc1ncc(C(F)(F)F)cc1Cl [II-40, fluazinam] gave an inhibition of growth at 1 ppm (Phytophthora infestans; Phytophthora infestans) of 24%, an inhibition of growth at 0.016 ppm (Septoria glycines; [5]) of 7% and an inhibition of growth at 1 ppm (Septoria glycines; [7]) of 24%.
Molecule CC(C)NC(=O)N1CC(=O)N(c2cc(Cl)cc(Cl)c2)C1=O [II-17, iprodione] has an inhibition of growth at 1 ppm (Septoria glycines; [7]) of 0%.
In the case of COC(=O)N(OC)c1ccccc1COc1ccn(-c2ccc(Cl)cc2)n1 [II-9, pyraclostrobin], the inhibition of growth at 0.016 ppm (Phytophthora infestans; Phytophthora infestans) is reported as 13%, the Observed effect (Botrytis cinerea [1]; 0.016 ppm) is reported as 8% and the inhibition of growth at 0.016 ppm (Septoria glycines; [5]) is reported as 69%. It also gave an Observed effect (Colleotrichum truncatum; 0.016 ppm) of 7%.
COCC(=O)N(c1c(C)cccc1C)C(C)C(=O)OC (stereo not drawn) [II-14, metalaxyl] was tested, and the inhibition of growth at 4 ppm (Septoria glycines; Septoria glycines, 4 ppm, read-out: Observed effect) was 18%.
COc1ccc(/C(=C\C(=O)N2CCOCC2)c2ccc(F)cc2)cc1OC [flumorph] gave an Observed effect (Septoria glycines; 16 ppm) of 21%.
In the case of COC(=O)C(C)N(C(=O)Cc1ccccc1)c1c(C)cccc1C (stereo not drawn) [benalaxyl], the Observed effect (Alternaria solani) is reported as 2% and the Observed effect (Septoria tritici; 250 ppm) is reported as 0%.
Work on “2-[trans-2-(3,4-difluorophenyl)-3-(2-trifluoromethylphenyl)oxiranylmethyl]-2,4-dihydro-[1,2,4]triazole-3-thione [Example I-4]” yielded an Observed effect (Phytophthora infestans; 63 ppm) of 31%, an Observed effect (Septoria glycines; 16 ppm) of 5% and an Observed effect (Septoria glycines; 63 ppm) of 23%. The Observed effect (Colleotrichum truncatum; 63 ppm) was 26%.
For CCNC(=O)NC(=O)/C(C#N)=N/OC [cymoxanil], the inhibition of growth at 16 ppm (Septoria glycines; Septoria glycines, 16 ppm, read-out: Observed effect) was 27%.
CNC(=O)/C(=N/OC)c1ccccc1CO/N=C(C)/C(=N/OC)C(/C)=N/OC [II-10, orysastrobin] gave an Observed effect (Phytophthora infestans; 1 ppm) of 22%, an Observed effect (Botrytis cinerea [1]; 1 ppm) of 13% and an Observed effect (Colleotrichum truncatum; 4 ppm) of 29%.
For mancozeb [II-18], the Observed effect (Alternaria solani) was 0%, the Observed effect (Botrytis cinerea [2]; 250 ppm) was 15% and the Observed effect (Puccinia recondita; 4 ppm) was 5%. It also gave an Observed effect (Phakopsora pachyrhizi; 16 ppm) of 7%, an Observed effect (Phakopsora pachyrhizi; 63 ppm) of 0% and an Observed effect (Septoria tritici; 16 ppm) of 3%. It also gave an Observed effect (Septoria tritici; 63 ppm) of 18%.
Work on “2-[trans-3-(2-chlorophenyl)-2-(2,4-difluorophenyl)oxiranylmethyl]-2,4-dihydro-[1,2,4]triazole-3-thione [Example I-1]” yielded an Observed effect (Phytophthora infestans; 1 ppm) of 3%, an Observed effect (Phytophthora infestans; 16 ppm) of 14% and an Observed effect (Phytophthora infestans; 63 ppm) of 53%. For the same molecule, the Observed effect (Septoria glycines; 16 ppm) was 30%, the Observed effect (Septoria glycines; 63 ppm) was 61% and the Observed effect (Colleotrichum truncatum; 1 ppm) was 5%. It also gave an Observed effect (Colleotrichum truncatum; 16 ppm) of 6%, an Observed effect (Colleotrichum truncatum; 63 ppm) of 30% and an Observed effect (Botrytis cinerea [2]; 4 ppm) of 2%. It also gave an Observed effect (Septoria tritici; 4 ppm) of 41%.
Cc1ccc(C(C)NC(=O)[C@@H](NC(=O)OC(C)C)C(C)C)cc1 (stereo partly drawn) [II-35, iprovalicarb] was tested, and the Observed effect (Septoria glycines; 1 ppm) was 3%.
Molecule CCCN(CCOc1c(Cl)cc(Cl)cc1Cl)C(=O)n1ccnc1 [II-46, prochloraz] has an inhibition of growth at 0.001 ppm (Septoria glycines; [4]) of 11%, an Observed effect (Phakopsora pachyrhizi; 1 ppm) of 7% and an Observed effect (Septoria tritici; 1 ppm) of 0%.
In the case of “1-[trans-2-(2,4-difluorophenyl)-3-(2-fluorophenyl)oxiranylmethyl]-5-methylsulfanyl-1H-[1,2,4]triazole [Example I-6]”, the Observed effect (Botrytis cinerea [1]; 4 ppm) is reported as 9%.
Molecule N#CSc1ncnn1C[C@]1(c2ccc(F)cc2F)O[C@H]1c1ccccc1Cl (relative stereo) [Example I-8, 1-[trans-3-(2-chlorophenyl)-2-(2,4-difluorophenyl)oxiranylmethyl]-5-thiocyanato-1H-[1,2,4]triazole] has an Observed effect (Phytophthora infestans; 4 ppm) of 7% and an Observed effect (Botrytis cinerea [1]; 16 ppm) of 19%.
Molecule N#Cc1c(Cl)c(Cl)c(Cl)c(C#N)c1Cl [II-21, chlorothalonil] has an Observed effect (Botrytis cinerea [1]; 1 ppm) of 40%, an inhibition of growth at […] (Septoria glycines; [6]) of 6% and an Observed effect (Septoria tritici; 4 ppm) of 0%.
Work on O=C1C2CC=CCC2C(=O)N1SC(Cl)(Cl)Cl (stereo not drawn) [captan] yielded an Observed effect (Phakopsora pachyrhizi; 1 ppm) of 0%, an Observed effect (Phakopsora pachyrhizi; 4 ppm) of 0% and an Observed effect (Septoria tritici; 16 ppm) of 0%.
Work on N#Cc1c[nH]cc1-c1cccc2c1OC(F)(F)O2 [II-38, fludioxonil] yielded an inhibition of growth at 1 ppm (Phytophthora infestans; Phytophthora infestans) of 27%.
CO/N=C(/C1=NOCCO1)c1ccccc1Oc1ncnc(Oc2ccccc2Cl)c1F [II-57, fluoxastrobin] showed an Observed effect (Phakopsora pachyrhizi; 1 ppm) of 15%.
OC(c1ccc(Cl)cc1)(c1cncnc1)c1ccccc1Cl (stereo not drawn) [fenarimol] showed an inhibition of growth at 0.016 ppm (Phytophthora infestans; Phytophthora infestans) of 5%, an inhibition of growth at 1 ppm (Phytophthora infestans; Phytophthora infestans) of 28% and an inhibition of growth at 0.016 ppm (Septoria glycines; [5]) of 11%. For the same molecule, the inhibition of growth at 1 ppm (Septoria glycines; [7]) was 39%.
For CO/N=C(/C(=O)OC)c1ccccc1COc1ccccc1C [II-8, kresoxim-methyl], the Observed effect (Colleotrichum truncatum; 1 ppm) was 27% and the Observed effect (Colleotrichum truncatum; 4 ppm) was 37%.
CC(C)NC(=O)N1CC(=O)N(c2cc(Cl)cc(Cl)c2)C1=O [iprodion] gave an Observed effect (Colleotrichum truncatum; 1 ppm) of 9%.
With Cc1ccccc1[C@@H]1O[C@]1(Cn1nc[nH]c1=S)c1ccc(F)c(F)c1 (relative stereo) [Example I-2, 2-[trans-2-(3,4-difluorophenyl)-3-o-tolyloxiranylmethyl]-2,4-dihydro-[1,2,4]triazole-3-thione] the Observed effect (Septoria glycines; 63 ppm) was 40% and the Observed effect (Colleotrichum truncatum; 63 ppm) was 38%.
